Measured values taken from US10562891B2, “Quinazolinones as PARP14 inhibitors” (Ribon Therapeutics Inc., priority 2017, dated 2020).
Counter-ions that a name gives are not always drawn.

biological target: catalytic domain of human PARP14 (Homo sapiens (Human), UniProt Q460N5); experiment: Enzymatic assay for inhibition of PARP14 (DELFIA, auto-modification with biotin-NAD); type: biochemical; conditions: auto-modification of PARP14 by biotin-NAD, 50 nM PARP14, 3 μM biotin-NAD
How it was run: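 His-TEV-tagged PARP14 catalytic domain (50 nM) preincubated with compound 30 min at 25 °C, then auto-modified with 3 μM biotin-NAD for 3 h at 25 °C in HEPES pH 8 buffer with DTT. IC50 from 4-parameter fit, rucaparib and DMSO as controls.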

Chain of catalytic domain of human PARP14 (Q460N5 1611-1801): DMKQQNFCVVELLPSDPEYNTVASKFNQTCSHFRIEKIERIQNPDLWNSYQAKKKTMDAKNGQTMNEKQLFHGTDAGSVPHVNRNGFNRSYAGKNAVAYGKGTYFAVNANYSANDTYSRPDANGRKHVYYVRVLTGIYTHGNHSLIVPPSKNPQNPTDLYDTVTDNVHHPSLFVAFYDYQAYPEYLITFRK

N#CCN1CCC(SCc2nc3cc(NC4CCCC4)cc(F)c3c(=O)[nH]2)CC1 [Example 285, 2-(4-(((7-(Cyclopentylamino)-5-fluoro-4-oxo-3,4-dihydroquinazolin-2-yl)methyl)thio)piperidin-1-yl)acetonitrile] and O=c1[nH]c(CS[C@H]2CC[C@H](C(=O)O)CC2)nc2cc(NC3CCCC3)cc(F)c12 [Example 217, trans-4-(((7-(Cyclopentylamino)-5-fluoro-4-oxo-3,4-dihydroquinazolin-2-yl)methyl)thio)cyclohexane-1-carboxylic acid] cannot be ordered by IC50: < 1000 nM for the first, < 1000 nM for the second.

O=c1[nH]c(CSC2CCOCC2)nc2nc(NC3CCCC3)ccc12 [Example 186, 7-(cyclopentylamino)-2-(((tetrahydro-2H-pyran-4-yl)thio)methyl)pyrido[2,3-d]pyrimidin-4(3H)-one] and CC(F)(F)CN1CCC(SCc2nc3cc(NC4CCCC4)ccc3c(=O)[nH]2)CC1 [Example 264, 7-(Cyclopentylamino)-2-(((1-(2,2-difluoropropyl)piperidin-4-yl)thio)methyl)quinazolin-4(3H)-one] cannot be ordered by IC50: < 1000 nM for the first, < 1000 nM for the second.

Cc1cccc2c(=O)[nH]c(CSC3CCNCC3)nc12 [Example 13, 8-Methyl-2-((piperidin-4-ylthio)methyl)quinazolin-4(3H)-one Trifluoroacetate] and Cc1ccc(Cl)c2c(=O)[nH]c(CSC3CCOCC3)nc12 [Example 34, 5-Chloro-8-methyl-2-(((tetrahydro-2H-pyran-4-yl)thio)methyl)quinazolin-4(3H)-one] cannot be ordered by IC50: < 1000 nM for the first, < 1000 nM for the second.

O=c1[nH]c(CS[C@H]2CC[C@H](O)CC2)nc2cc(NC3CCN(CCC(F)(F)F)CC3)c(F)c(F)c12 [Example 354] and O=c1[nH]c(CSC2CCNCC2)nc2cc(NC3CCCC3)c(F)c(F)c12 [Example 232, 7-(Cyclopentylamino)-5,6-difluoro-2-((piperidin-4-ylthio)methyl)quinazolin-4(3H)-one Hydrochloride] cannot be ordered by IC50: < 1000 nM for the first, < 1000 nM for the second.

O=c1[nH]c(CSC2CCNCC2)nc2cc(NC3CCCC3)cc(Cl)c12 [Example 206, 5-Chloro-7-(cyclopentylamino)-2-((piperidin-4-ylthio)methyl)quinazolin-4(3H)-one Hydrochloride] and O=c1[nH]c(CS[C@H]2CNC[C@H]2F)nc2cc(NC3CCCC3)cc(F)c12 (relative stereo) [Example 223, 7-(Cyclopentylamino)-5-fluoro-2-(((cis-4-fluoropyrrolidin-3-yl)thio)methyl)quinazolin-4(3H)-one Trifluoroacetate] cannot be ordered by IC50: < 1000 nM for the first, < 1000 nM for the second.

O=c1[nH]c(CS[C@H]2CC[C@H](O)CC2)nc2cc(OCC3CCOCC3)cc(F)c12 [Example 342] and O=c1[nH]c(CS[C@H]2CC[C@H](O)CC2)nc2cc(N[C@@H]3CCC[C@@H]3F)cc(F)c12 (relative stereo) [Example 341] cannot be ordered by IC50: < 1000 nM for the first, < 1000 nM for the second.

First: CC(=O)N1CCC(CNc2cc3nc(CSC4CCOCC4)[nH]c(=O)c3c(F)c2F)CC1 [Example 369]
Second: O=c1[nH]c(CSC2CCOCC2)nc2cc(NCc3ccncc3)ccc12 [Example 117, 7-((Pyridin-4-ylmethyl)amino)-2-(((tetrahydro-2H-pyran-4-yl)thio)methyl)quinazolin-4(3H)-one]
The IC50 of the first is lower: < 1000 nM for the first, 1000 to 10000 nM for the second.

Compared with O=c1[nH]c(CS[C@@H]2CCNC[C@H]2F)nc2cc(OCC3CC3)cc(F)c12 (relative stereo) [Example 297, 7-(Cyclopropylmethoxy)-5-fluoro-2-(((trans-3-fluoropiperidin-4-yl)thio)methyl)quinazolin-4(3H)-one hydrochloride], Cc1ccc(C(F)(F)F)c2c(=O)[nH]c(CSC3CCC(O)CC3)nc12 (centres unmarked) [Example 59, 2-(((4-Hydroxycyclohexyl)thio)methyl)-8-methyl-5-(trifluoromethyl)quinazolin-4(3H)-one] is lower in IC50: 1000 to 10000 nM for the first, < 1000 nM for the second.

Cc1cccc2c(=O)[nH]c(C(C)SC3CCOCC3)nc12 (centres unmarked) [Example 7] was tested, and the IC50 was > 10000 nM.
